Reference: ChEMBL document CHEMBL1138847, “Improved structure-activity relationship analysis of HIV-1 protease inhibitors using interaction kinetic data” (J Med Chem, 2004)

Assays:
[1] = target: T1, Human immunodeficiency virus type 1 protease (Human immunodeficiency virus 1, UniProt Q72874); experiment: Inhibition constant for human immunodeficiency virus type 1 protease
[2] = test system: MT4; experiment: Effective dose of compound required to inhibit replication of human immunodeficiency virus type 1 in MT-4 cells; format: functional; settings: read-out: ED50 (the source's name)
[3] = target: Human immunodeficiency virus type 1 protease (Human immunodeficiency virus 1) (UniProt Q72874)
Description: Association rate constant for human immunodeficiency virus type 1 protease

[4] = target: T1, Human immunodeficiency virus type 1 protease; experiment: Binding affinity for human immunodeficiency virus type 1 protease
[5] = target: Human immunodeficiency virus type 1 protease (Human immunodeficiency virus 1) (UniProt Q72874); remark: listed apart in the source
Description: Dissociation rate constant for human immunodeficiency virus type 1 protease

`COC(=O)/C=C/c1ccc(O[C@@H](C(=O)NC(=O)[C@@H](C)C(C)C)[C@H](O)[C@@H](O)[C@@H](O)C(=O)NC(=O)[C@@H](C)C(C)C)cc1` gave a Ki [1] of 0.09 nM, an EC50 [2] of 2580 nM and a k on [3] of 204000 M⁻¹ s⁻¹. It also gave a Kd [4] of 1.95 nM and a k off [5] of 0.000365 s⁻¹.
`CC(C)[C@H](C)C(=O)NC(=O)[C@H](O)[C@H](O)[C@@H](O)[C@@H](Oc1ccc(C2=C(O)C(=O)CCC2)cc1)C(=O)NC(=O)[C@@H](C)C(C)C` gave a Ki [1] of 0.3 nM, an EC50 [2] of 5600 nM and a k on [3] of 29300 M⁻¹ s⁻¹. The Kd [4] was 17.5 nM and the k off [5] was 0.000487 s⁻¹.
For `CC(C)[C@H](C)C(=O)NC(=O)[C@H](O)[C@@H](O)[C@H](O)[C@@H](Oc1ccccc1)C(=O)NC(=O)[C@@H](C)C(C)C`, the Ki [1] was 40 nM, the EC50 [2] was 22900 nM and the k on [3] was 9200 M⁻¹ s⁻¹. It also gave a Kd [4] of 2990 nM and a k off [5] of 0.02 s⁻¹.
For `CC(C)c1nc(CN(C)C(=O)N[C@H](C(=O)N[C@@H](Cc2ccccc2)C[C@H](O)[C@H](Cc2ccccc2)NC(=O)OCc2cncs2)C(C)C)cs1` [RITONAVIR], the EC50 [2] was 50 nM.
`O=C(NC1c2ccccc2C[C@H]1O)[C@H](O)C[C@@H](O)[C@@H](Oc1ccccc1)C(=O)NC1c2ccccc2C[C@@H]1O` (stereo partly drawn) showed an EC50 [2] of 1440 nM, a k on [3] of 666000 M⁻¹ s⁻¹ and a Kd [4] of 35.8 nM. For the same compound, the k off [5] was 0.02 s⁻¹.
With `CC(C)(C)NC(=O)[C@@H]1CN(Cc2cccnc2)CCN1C[C@@H](O)C[C@@H](Cc1ccccc1)C(=O)N[C@H]1c2ccccc2C[C@H]1O` the EC50 [2] was 50 nM.
Compound `CC(C)(C)NC(=O)c1ccccc1NC[C@H](O)[C@H](Cc1ccccc1)NC(=O)[C@H](CC(N)=O)NC(=O)c1ccc2ccccc2n1` has an EC50 [2] of 10100 nM.
Work on `Cc1cccc(C)c1OCC(=O)N[C@@H](Cc1ccccc1)[C@@H](O)C[C@H](Cc1ccccc1)NC(=O)[C@H](C(C)C)N1CCCNC1=O` [LOPINAVIR] yielded an EC50 [2] of 10 nM, a k on [3] of 6.63e+06 M⁻¹ s⁻¹ and a k off [5] of 0.000654 s⁻¹.
`CC(C)[C@H](C)C(=O)NC(=O)[C@H](O)[C@H](O)[C@@H](O)[C@@H](Oc1ccc(CCc2ccccc2)cc1)C(=O)NC(=O)[C@@H](C)C(C)C` showed a Ki [1] of 0.8 nM, an EC50 [2] of 2050 nM and a k on [3] of 81100 M⁻¹ s⁻¹. It also gave a Kd [4] of 34.2 nM and a k off [5] of 0.00163 s⁻¹.
`COC(=O)N[C@H](C(=O)N[C@@H](Cc1ccccc1)[C@@H](O)CN(Cc1ccc(-c2ccccn2)cc1)NC(=O)[C@@H](NC(=O)OC)C(C)(C)C)C(C)(C)C` [ATAZANAVIR] gave a Ki [1] of 0.24 nM, an EC50 [2] of 6 nM and a k on [3] of 1.67e+06 M⁻¹ s⁻¹. For the same compound, the Kd [4] was 0.4 nM and the k off [5] was 0.00069 s⁻¹.
Compound `Cc1cc(NS(=O)(=O)c2ccc(N)cc2)no1` [SULFAMETHOXAZOLE] has a Ki [1] of 10.1 nM, an EC50 [2] of over 79000 nM and a k on [3] of 188000 M⁻¹ s⁻¹. The Kd [4] was 577 nM and the k off [5] was 0.06 s⁻¹.
Compound `CC(C)[C@H](C)C(=O)NC(=O)[C@H](O)[C@H](O)[C@@H](O)[C@@H](Oc1ccccc1)C(=O)NC(=O)[C@@H](C)C(C)C` has a Ki [1] of 0.4 nM, an EC50 [2] of 1320 nM and a k on [3] of 355000 M⁻¹ s⁻¹. The Kd [4] was 10.8 nM and the k off [5] was 0.00367 s⁻¹.
For `CC(C)[C@H](C)C(=O)NC(=O)[C@H](O)[C@H](O)[C@@H](O)[C@@H](Oc1ccccc1)C(=O)NC1c2ccccc2C[C@@H]1O` (stereo partly drawn), the Ki [1] was 0.05 nM, the EC50 [2] was 120 nM and the k on [3] was 5.97e+06 M⁻¹ s⁻¹. It also gave a Kd [4] of 4.42 nM and a k off [5] of 0.02 s⁻¹.
`O=C(NC1c2ccccc2C[C@@H]1O)[C@H](O)[C@H](O)[C@@H](O)[C@@H](Oc1ccccc1)C(=O)NC1c2ccccc2C[C@@H]1O` (stereo partly drawn) gave a Ki [1] of 0.6 nM, an EC50 [2] of 100 nM and a k on [3] of 6.39e+06 M⁻¹ s⁻¹. The Kd [4] was 13.9 nM and the k off [5] was 0.01 s⁻¹.
For `CC(C)(C)NC(=O)c1ccccc1NC[C@@H](O)[C@H](Cc1ccccc1)NC(=O)[C@H](CC(N)=O)NC(=O)OCc1ccccc1`, the EC50 [2] was 3310 nM.
`Cc1c(O)cccc1C(=O)N[C@@H](CSc1ccccc1)[C@H](O)CN1C[C@H]2CCCC[C@H]2C[C@H]1C(=O)NC(C)(C)C` was tested, and the EC50 [2] was 20 nM.
For `CC(C)[C@H](C)C(=O)NC(=O)[C@H](O)[C@H](O)[C@@H](O)[C@@H](Oc1ccc(-c2ccccn2)cc1)C(=O)NC(=O)[C@@H](C)C(C)C`, the Ki [1] was 0.61 nM, the EC50 [2] was 640 nM and the k on [3] was 323000 M⁻¹ s⁻¹. It also gave a Kd [4] of 1.18 nM and a k off [5] of 0.000373 s⁻¹.
With `CC(C)[C@H](C)C(=O)NC(=O)[C@H](O)[C@H](O)[C@@H](O)[C@@H](Oc1ccc(-c2cccc([N+](=O)[O-])c2)cc1)C(=O)NC(=O)[C@@H](C)C(C)C` the Ki [1] was 1.4 nM, the EC50 [2] was 160 nM and the k on [3] was 181000 M⁻¹ s⁻¹. It also gave a Kd [4] of 18.2 nM and a k off [5] of 0.000817 s⁻¹.
`CC(C)CN(C[C@@H](O)[C@H](Cc1ccccc1)NC(=O)O[C@H]1CCOC1)S(=O)(=O)c1ccc(N)cc1` gave a Ki [1] of 0.23 nM, an EC50 [2] of 80 nM and a k on [3] of 4.43e+06 M⁻¹ s⁻¹. It also gave a Kd [4] of 1.1 nM and a k off [5] of 0.00488 s⁻¹.
For `CC(C)[C@H](C)C(=O)NC(=O)[C@H](O)[C@H](O)[C@@H](O)[C@@H](Oc1ccc(-c2nccs2)cc1)C(=O)NC(=O)[C@@H](C)C(C)C`, the Ki [1] was 0.55 nM, the EC50 [2] was 240 nM and the k on [3] was 477000 M⁻¹ s⁻¹. For the same compound, the Kd [4] was 0.64 nM and the k off [5] was 0.000303 s⁻¹.
For `C[C@@H](Cc1ccc(O)cc1)C(=O)NC(=O)[C@H](O)[C@H](O)[C@@H](O)[C@@H](Oc1ccccc1)C(=O)NC(=O)[C@@H](C)Cc1ccc(O)cc1`, the Ki [1] was 5000 nM, the EC50 [2] was over 67000 nM and the k on [3] was 172 M⁻¹ s⁻¹. For the same compound, the Kd [4] was 309000 nM and the k off [5] was 0.06 s⁻¹.
`CCO[C@@H](C(=O)NC(=O)[C@@H](C)C(C)C)[C@H](O)[C@@H](O)[C@@H](O)C(=O)NC(=O)[C@@H](C)C(C)C` was tested, and the EC50 [2] was over 192000 nM, the k on [3] was 134 M⁻¹ s⁻¹ and the Kd [4] was 38400 nM. The k off [5] was 0.00485 s⁻¹.
Work on `CC(C)[C@H](C)C(=O)NC(=O)[C@H](O)[C@H](O)[C@@H](O)[C@@H](Oc1ccc(Br)cc1)C(=O)NC(=O)[C@@H](C)C(C)C` yielded a Ki [1] of 0.3 nM, an EC50 [2] of 650 nM and a Kd [4] of 21.1 nM. For the same compound, the k off [5] was 0.00169 s⁻¹.
With `O=S1(=O)N(Cc2ccc(CO)cc2)[C@H](COc2ccccc2)[C@H](O)[C@@H](O)[C@@H](COc2ccccc2)N1Cc1ccc(CO)cc1` the EC50 [2] was 1550 nM and the k off [5] was 0.0273 s⁻¹.
In the case of `CC(C)(C)NC(=O)[C@@H]1C[C@@H]2CCCC[C@@H]2CN1C[C@@H](O)[C@H](Cc1ccccc1)NC(=O)[C@H](CC(N)=O)NC(=O)c1ccc2ccccc2n1`, the EC50 [2] is reported as 10 nM.
`CC(NO)c1cccc(CN2[C@H](COc3ccccc3)[C@H](O)[C@@H](O)[C@@H](COc3ccccc3)N(Cc3cccc(C(C)NO)c3)S2(=O)=O)c1` (stereo partly drawn) showed a Ki [1] of 5.6 nM, an EC50 [2] of 2900 nM and a k on [3] of 512000 M⁻¹ s⁻¹. For the same compound, the Kd [4] was 169 nM and the k off [5] was 0.04 s⁻¹.
`CC(C)[C@H](C)C(=O)NC(=O)[C@H]([O-])[C@H](O)[C@@H](O)[C@@H](Oc1ccc(C2=CC=[S+]C2)cc1)C(=O)NC(=O)[C@@H](C)C(C)C` was tested, and the Ki [1] was 1.2 nM, the EC50 [2] was 40 nM and the k on [3] was 348000 M⁻¹ s⁻¹. It also gave a Kd [4] of 3.04 nM and a k off [5] of 0.000432 s⁻¹.
